Measurements reported in paper PMC9095486, “Reversible RNA phosphorylation stabilizes tRNA for cellular thermotolerance” (Nature, 2022).

How the values were obtained:
[1] = biological target: T1, TkArkI (Thermococcus kodakarensis, UniProt Q5JDQ4); assay: LC-MS of ligands extracted from purified protein; assay type: binding; settings: co-purified from E. coli
T1 construct: gene TK2051; full length, codon-optimised synthetic gene in pE-SUMO-TEV, E. coli; His6-SUMO tag cleaved by Ulp1; residues 1-216 described in structure

[2] = biological target: T1, TkArkI; assay: X-ray crystallography, […] Å; LC-MS of bound ligand; settings: co-purified from E. coli; putative ATP-binding pocket

T1 sequence (Q5JDQ4 entry or part of it): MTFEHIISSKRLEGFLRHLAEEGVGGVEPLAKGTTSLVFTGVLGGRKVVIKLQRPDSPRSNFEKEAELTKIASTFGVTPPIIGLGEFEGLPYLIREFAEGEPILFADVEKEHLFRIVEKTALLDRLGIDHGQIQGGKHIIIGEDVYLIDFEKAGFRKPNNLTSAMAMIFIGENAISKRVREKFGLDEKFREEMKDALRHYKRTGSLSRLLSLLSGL

| SMILES | LC-MS of ligands extracted from purified protein [1] | X-ray crystallography, 1.8 Å; LC-MS of bound ligand [2] |
| --- | --- | --- |
| Nc1nc2c(ncn2[C@H]2C[C@H](O)[C@@H](CO)O2)c(=O)[nH]1 [deoxyguanosine] | We confirmed guanosine (and deoxyguanosine) as a ligand that tightly binds to TkArkI | – |
| Nc1nc2c(ncn2[C@@H]2O[C@H](CO)[C@@H](O)[C@H]2O)c(=O)[nH]1 [guanosine] | – | we observed a clear electron density for guanosine in the cleft of the two lobes |
